In PubChem BioAssay AID1963432 (Molecular Pharmacology Branch, DTP, NCI, 2024):

System: SYO-1 complex spheroid growth, percent test/control
Assay: Anticancer human tumor SYO-1 cell line growth inhibition [Asc];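 note: compound exposure lasted 7 days after spheroids grew 3 days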;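 for viability, T/C: 100% = DMSO vehicle control viability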
Conditions: for IC50: curve of first compound; for viability, T/C: stronger effect = lower value
How it was run: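 Tumor cells were grown as multicellular spheroids with stromal HUVEC and mesenchymal stem cells and treated singly or in combination. Concentrations fell in half-log steps from the clinical Cmax, or from 10 microM where none was known.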

[1] = second compound 0.0316 µM, first compound 0.00316 µM
[2] = second compound 0.0316 µM, first compound 0.01 µM
[3] = second compound 0.0316 µM, first compound 0.0316 µM
[4] = second compound 0.0316 µM, first compound 0.1 µM
[5] = second compound 0.0316 µM, first compound 0.316 µM
[6] = second compound 0.0316 µM, first compound 1 µM
[7] = second compound 0.1 µM, first compound 0.00316 µM
[8] = second compound 0.1 µM, first compound 0.01 µM
[9] = second compound 0.1 µM, first compound 0.0316 µM
[10] = second compound 0.1 µM, first compound 0.1 µM
[11] = second compound 0.1 µM, first compound 0.316 µM
[12] = second compound 0.1 µM, first compound 1 µM
[13] = second compound 0.316 µM, first compound 0.00316 µM
[14] = second compound 0.316 µM, first compound 0.01 µM
[15] = second compound 0.316 µM, first compound 0.0316 µM
[16] = second compound 0.316 µM, first compound 0.1 µM
[17] = second compound 0.316 µM, first compound 0.316 µM
[18] = second compound 0.316 µM, first compound 1 µM
[19] = second compound 1 µM, first compound 0.00316 µM
[20] = second compound 1 µM, first compound 0.01 µM
[21] = second compound 1 µM, first compound 0.0316 µM
[22] = second compound 1 µM, first compound 0.1 µM
[23] = second compound 1 µM, first compound 0.316 µM
[24] = second compound 1 µM, first compound 1 µM
[25] = second compound 3.16 µM, first compound 0.00316 µM
[26] = second compound 3.16 µM, first compound 0.01 µM
[27] = second compound 3.16 µM, first compound 0.0316 µM
[28] = second compound 3.16 µM, first compound 0.1 µM
[29] = second compound 3.16 µM, first compound 0.316 µM
[30] = second compound 3.16 µM, first compound 1 µM
[31] = second compound 10 µM, first compound 0.00316 µM
[32] = second compound 10 µM, first compound 0.01 µM
[33] = second compound 10 µM, first compound 0.0316 µM
[34] = second compound 10 µM, first compound 0.1 µM
[35] = second compound 10 µM, first compound 0.316 µM
[36] = second compound 10 µM, first compound 1 µM

Compound `CCN1CCN(Cc2ccc(Nc3ncc(F)c(-c4cc(F)c5nc(C)n(C(C)C)c5c4)n3)nc2)CC1` + Cc1c(S(C)(=O)=O)c(-c2cc(F)cc(N3CCN(c4ccc(NS(=O)(=O)c5ccc(NC(CCN6CCC(C(=O)OCCCP(=O)(O)O)CC6)CSc6ccccc6)c(S(=O)(=O)C(F)(F)F)c5)cc4)CC3)c2)c(-c2ccc(Cl)cc2)n1C(C)C has an IC50 (second compound 0.0316 µM) greater than 1 µM, an IC50 (second compound 0.1 µM) greater than 1 µM and an IC50 (second compound 0.316 µM) greater than 1 µM. For the same compound, the IC50 (second compound 1 µM) was greater than 1 µM, the IC50 (second compound 3.16 µM) was greater than 1 µM and the IC50 (second compound 10 µM) was greater than 1 µM. For the same compound, the viability, T/C [1] was 102%, the viability, T/C [2] was 99.2% and the viability, T/C [3] was 109%. For the same compound, the viability, T/C [4] was 111%, the viability, T/C [5] was 121% and the viability, T/C [6] was 106%. It also gave a viability, T/C [7] of 99.8%, a viability, T/C [8] of 101% and a viability, T/C [9] of 97.8%. It also gave a viability, T/C [10] of 113%, a viability, T/C [11] of 116% and a viability, T/C [12] of 109%. The viability, T/C [13] was 103%, the viability, T/C [14] was 99.1% and the viability, T/C [15] was 108%. The viability, T/C [16] was 108%, the viability, T/C [17] was 114% and the viability, T/C [18] was 99.4%. The viability, T/C [19] was 99.7%, the viability, T/C [20] was 105% and the viability, T/C [21] was 103%. For the same compound, the viability, T/C [22] was 106%, the viability, T/C [23] was 115% and the viability, T/C [24] was 95.1%. For the same compound, the viability, T/C [25] was 92.7%, the viability, T/C [26] was 93.7% and the viability, T/C [27] was 110%. It also gave a viability, T/C [28] of 107%, a viability, T/C [29] of 110% and a viability, T/C [30] of 92.2%. For the same compound, the viability, T/C [31] was 87.5%, the viability, T/C [32] was 82.5% and the viability, T/C [33] was 80%. For the same compound, the viability, T/C [34] was 94.2%, the viability, T/C [35] was 101% and the viability, T/C [36] was 86.6%.
Work on `NC(=O)C(=Cn1cnc(-c2cc(C(F)(F)F)cc(C(F)(F)F)c2)n1)c1cncnc1` + Cc1c(S(C)(=O)=O)c(-c2cc(F)cc(N3CCN(c4ccc(NS(=O)(=O)c5ccc(NC(CCN6CCC(C(=O)OCCCP(=O)(O)O)CC6)CSc6ccccc6)c(S(=O)(=O)C(F)(F)F)c5)cc4)CC3)c2)c(-c2ccc(Cl)cc2)n1C(C)C yielded an IC50 (second compound 0.0316 µM) of 0.17 µM, an IC50 (second compound 0.1 µM) of 0.165 µM and an IC50 (second compound 0.316 µM) of 0.159 µM. The IC50 (second compound 1 µM) was 0.155 µM, the IC50 (second compound 3.16 µM) was 0.148 µM and the IC50 (second compound 10 µM) was 0.11 µM. It also gave a viability, T/C (second compound 0.0316 µM, first compound 0.000949 µM) of 98.1%, a viability, T/C (second compound 0.0316 µM, first compound 0.003 µM) of 102% and a viability, T/C (second compound 0.0316 µM, first compound 0.00949 µM) of 86.8%. It also gave a viability, T/C (second compound 0.0316 µM, first compound 0.03 µM) of 93.8%, a viability, T/C (second compound 0.0316 µM, first compound 0.0949 µM) of 96.3% and a viability, T/C (second compound 0.0316 µM, first compound 0.3 µM) of 5.53%. For the same compound, the viability, T/C (second compound 0.1 µM, first compound 0.000949 µM) was 97.6%, the viability, T/C (second compound 0.1 µM, first compound 0.003 µM) was 94% and the viability, T/C (second compound 0.1 µM, first compound 0.00949 µM) was 89.9%. The viability, T/C (second compound 0.1 µM, first compound 0.03 µM) was 93.9%, the viability, T/C (second compound 0.1 µM, first compound 0.0949 µM) was 95.7% and the viability, T/C (second compound 0.1 µM, first compound 0.3 µM) was 2.56%. It also gave a viability, T/C (second compound 0.316 µM, first compound 0.000949 µM) of 95%, a viability, T/C (second compound 0.316 µM, first compound 0.003 µM) of 94.8% and a viability, T/C (second compound 0.316 µM, first compound 0.00949 µM) of 92.9%. For the same compound, the viability, T/C (second compound 0.316 µM, first compound 0.03 µM) was 92.8%, the viability, T/C (second compound 0.316 µM, first compound 0.0949 µM) was 89.1% and the viability, T/C (second compound 0.316 µM, first compound 0.3 µM) was 1.51%. It also gave a viability, T/C (second compound 1 µM, first compound 0.000949 µM) of 101%, a viability, T/C (second compound 1 µM, first compound 0.003 µM) of 91.2% and a viability, T/C (second compound 1 µM, first compound 0.00949 µM) of 86%. For the same compound, the viability, T/C (second compound 1 µM, first compound 0.03 µM) was 90.8%, the viability, T/C (second compound 1 µM, first compound 0.0949 µM) was 86.5% and the viability, T/C (second compound 1 µM, first compound 0.3 µM) was 0.55%. For the same compound, the viability, T/C (second compound 3.16 µM, first compound 0.000949 µM) was 91.2%, the viability, T/C (second compound 3.16 µM, first compound 0.003 µM) was 87.3% and the viability, T/C (second compound 3.16 µM, first compound 0.00949 µM) was 84%. It also gave a viability, T/C (second compound 3.16 µM, first compound 0.03 µM) of 86.3%, a viability, T/C (second compound 3.16 µM, first compound 0.0949 µM) of 81.3% and a viability, T/C (second compound 3.16 µM, first compound 0.3 µM) of 0.31%. The viability, T/C (second compound 10 µM, first compound 0.000949 µM) was 89%, the viability, T/C (second compound 10 µM, first compound 0.003 µM) was 76.8% and the viability, T/C (second compound 10 µM, first compound 0.00949 µM) was 75.6%. For the same compound, the viability, T/C (second compound 10 µM, first compound 0.03 µM) was 67.2%, the viability, T/C (second compound 10 µM, first compound 0.0949 µM) was 61.6% and the viability, T/C (second compound 10 µM, first compound 0.3 µM) was 0.38%.
For `O=C(c1ccc(F)c(F)c1Nc1ccc(I)cc1F)N1CC(O)([C@@H]2CCCCN2)C1` + Cc1c(S(C)(=O)=O)c(-c2cc(F)cc(N3CCN(c4ccc(NS(=O)(=O)c5ccc(NC(CCN6CCC(C(=O)OCCCP(=O)(O)O)CC6)CSc6ccccc6)c(S(=O)(=O)C(F)(F)F)c5)cc4)CC3)c2)c(-c2ccc(Cl)cc2)n1C(C)C, the IC50 (second compound 0.0316 µM) was greater than 1 µM, the IC50 (second compound 0.1 µM) was greater than 1 µM and the IC50 (second compound 0.316 µM) was greater than 1 µM. It also gave an IC50 (second compound 1 µM) greater than 1 µM, an IC50 (second compound 3.16 µM) greater than 1 µM and an IC50 (second compound 10 µM) greater than 1 µM. It also gave a viability, T/C [1] of 98.2%, a viability, T/C [2] of 102% and a viability, T/C [3] of 106%. It also gave a viability, T/C [4] of 99.6%, a viability, T/C [5] of 110% and a viability, T/C [6] of 113%. For the same compound, the viability, T/C [7] was 95.3%, the viability, T/C [8] was 101% and the viability, T/C [9] was 97.1%. It also gave a viability, T/C [10] of 102%, a viability, T/C [11] of 103% and a viability, T/C [12] of 99.8%. It also gave a viability, T/C [13] of 95.7%, a viability, T/C [14] of 93.6% and a viability, T/C [15] of 94.2%. The viability, T/C [16] was 106%, the viability, T/C [17] was 99% and the viability, T/C [18] was 104%. It also gave a viability, T/C [19] of 91.6%, a viability, T/C [20] of 89.5% and a viability, T/C [21] of 100%. For the same compound, the viability, T/C [22] was 98.9%, the viability, T/C [23] was 102% and the viability, T/C [24] was 97.1%. It also gave a viability, T/C [25] of 91.9%, a viability, T/C [26] of 92.1% and a viability, T/C [27] of 87.2%. It also gave a viability, T/C [28] of 99.8%, a viability, T/C [29] of 101% and a viability, T/C [30] of 93.4%. For the same compound, the viability, T/C [31] was 85.8%, the viability, T/C [32] was 81.3% and the viability, T/C [33] was 92.2%. It also gave a viability, T/C [34] of 85.6%, a viability, T/C [35] of 71.8% and a viability, T/C [36] of 67.6%.
